Reference: patent US5707821A, “Identification of phospholipase A2 inhibitors in Aβ peptide-mediated neurodegenerative disease” (priority 1995, dated 1998)
Read-outs that look alike come from different tables or passages of the source.

Tests used:
[1] = tested on: human cortical neurons; experiment: Compound toxicity to human cortical neurons in absence of Aβ1-40, added as in pretreatment protocol; format: cell-based; conditions: no Aβ1-40, 3 days; for TD10 (concentration giving 10% loss of neuronal survival): n=3
Protocol: (§1) Cultures of human cortical or hippocampal neurons were prepared using a modification of the procedure described in P. Seubert et al. (1992), Nature 359:325-327. Cortical or hippocampal tissue was dissociated by incubation in a trypsin/EDTA solution (0.05% trypsin +0.53 mM EDTA in HBSS; Gibco) for 20 minutes at 37° C. The trypsin was then inactivated by resuspending the cells in serum-containing medium (MEM/FBS): Modified Eagle's Medium (MEM) containing 1% glucose, 1 mM sodium pyruvate, 1 mM glutamine, and supplemented with 10% fetal bovine serum (Gibco). Cells were then pelleted by centrifugation and resuspended in a chemically-defined medium (MEM/B27): MEM containing B27 supplement (Gibco) in place of FBS. Polyethyleneimine (PEI)-coated 6.4-mm (96-well) dishes were rinsed once with MEM/FBS, and then seeded at 0.75-1.25×10^5 cells per well in 0.1 ml MEM/B27. Cultures were maintained in a H2 O-saturated incubator with an atmosphere of 95% air/5% CO2 at 37° C. The culture medium was exchanged twice weekly.
(§2) The alamarBlue™ assay incorporated a proprietary fluorometric/colorimetric metabolic indicator (Alamar Biosciences, Inc.). Viable cells convert alamarBlue™ from an oxidized (non-fluorescent, blue) form to a reduced (fluorescent, red) form. Assays were performed by replacing the culture media with a 10% alamarBlue™ solution in DMEM (rat cortical cultures) or MEM (human cortical cultures). Reduction of alamarBlue™ was determined spectrofluorometrically using a Millipore Cytofluor 2350 Scanner (excitation, […]; emission, 590 nm) and CytoCalc™ software (Millipore Corporation).
(§3) Human cortical neurons were treated with 50 μM Aβ1-40 and various inhibitors of PLA2. Compounds were added 2 hours prior to Aβ1-40 treatment at concentrations of 390 nM to 100 μM, and were then re-added at the time of Aβ1-40 treatment. Compounds were also added in an identical manner to neuronal cultures in the absence of Aβ1-40. Neuronal survival was determined after 3 days of treatment by alamarBlue®. IC50 is the dose of compound that inhibited Aβ-mediated neurotoxicity by 50%. […] Data represents the mean ± SD (n=3). ND, not detected at the concentration range used.

[2] = tested on: human cortical neurons; experiment: Aβ neurotoxicity in human cortical neurons (alamarBlue), 2 h pretreatment with inhibitor; format: cell-based; conditions: for Emax / IC50: Homo sapiens, Cortical neurone; for Emax: 72 h, read-out: Max Inh; for IC50: ND = not detected at the concentration range used, read-out: IC50 (dose that inhibited Aβ-mediated neurotoxicity by 50%)
Protocol: as §1
(§4) Amyloid-β (Aβ) stock solutions were prepared as 1 mM stocks in sterile ddH2 O immediately prior to addition to cultures. Rat cortical neurons were exposed to Aβ by removing the culture medium and replacing it with DMEM/N2 or DMEM/B27 containing Aβ1-40. Human cortical neurons were exposed to Aβ by removing the culture medium and replacing it with MEM, MEM/N2, or MEM/B27 containing Aβ1-40. Cultures were maintained for 2-4 days before neuronal survival was quantified using alamarBlue™.
as §2
The effect of pretreating human cortical neuron cultures with the benzenesulfonamide PLA2 inhibitors and arachidonyl trifluoromethyl ketone prior to exposure to a neurotoxic concentration of Aβ1-40 was determined.
as §3

[3] = tested on: human cortical neurons; experiment: Compound toxicity to human cortical neurons in absence of Aβ1-40 (alamarBlue, 3 days); format: cell-based
Protocol: as §1, §2
as §3, with “PLA2 or PLC.” for “PLA2.”, “added” for “added 2 hours prior to Aβ1-40 treatment at concentrations of 390 nM to 100 μM, and were then re-added”, “treatment at concentrations 390 nM to 100 μM.” for “treatment.”, “added” for “added in an identical manner”

[4] = as above; format: cell-based; conditions: human, cortical neurons
Protocol: as §1, §2
as §3, with “PLA2 or PLC.” for “PLA2.”, “added” for “added 2 hours prior to Aβ1-40 treatment at concentrations of 390 nM to 100 μM, and were then re-added”, “treatment at concentrations 390 nM to 100 μM.” for “treatment.”, “added” for “added in an identical manner”

[5] = tested on: human cortical neurons; experiment: Aβ neurotoxicity / survival of human cortical neurons (alamarBlue), compound added at time of Aβ1-40; format: cell-based
Protocol: as §1, §4, §2
The effect of the two benzenesulfonamide inhibitors of PLA2 in Example 2 were examined to determine the dose-dependence of their effect on neuronal survival in human cortical neuron cultures exposed to 0 μM, 25μM, or 50 μM of Aβ1-40 and varying doses of the benzenesulfonamide.
as §3, with “PLA2 or PLC.” for “PLA2.”, “added” for “added 2 hours prior to Aβ1-40 treatment at concentrations of 390 nM to 100 μM, and were then re-added”, “treatment at concentrations 390 nM to 100 μM.” for “treatment.”, “added” for “added in an identical manner”

[6] = tested on: Ca^+2 -independent PLA2; conditions: Ackermann et al. (1995); cited from earlier work
[7] = tested on: cPLA2; conditions: Street et al. (1993); cited from earlier work
[8] = tested on: TNF-α release by cultured human cortical microglia; experiment: TNF-α release (ELISA) from Aβ1-40-stimulated human microglia; format: cell-based
Protocol: (§5) Cultures of human cortical or hippocampal astrocytes and microglia were prepared using a modification of the procedure described for cortical neurons. Cortical tissue from fetuses of 16 to 20 weeks of gestation was washed 3 times in Ca^2+ /Mg^2+ free Hanks balanced salt solution (CMF HBSS) and then dissociated by repeated pipetting. The solution was brought to a final volume of 80 ml CMF HBSS for approximately 10 ml of tissue. DNase (Sigma) was added to a final concentration of 0.05 mg/ml. 20 ml of the solution was passed through one 100 μm nylon cell strained (Falcon). The cells were then centrifuged for 5 minutes at 200×G in an IEC Clinical Centrifuge and resuspended in a trypsin/EDTA solution (0.05% trypsin+0.53 mM EDTA in HBSS; Gibco) and incubated for 20 minutes at 37°C. (10 ml of trypsin was added per 2-3 ml of tissue). The trypsin was then inactivated by adding (MEM/FBS): Modified Eagle's Medium (MEM) containing 1% glucose, 1 mM sodium pyruvate, 1 mM glutamine, and supplemented with 10% fetal bovine serum (JRH). After adding a final concentration of 0.05 mg/ml DNase the cells were resuspended and then pelleted by centrifugation and resuspended in MEM/FBS. 1.6×10^8 cells were seeded in a T-150 tissue culture flask coated with polyethyleneimine (PEI). (10% PEI (Sigma) was diluted 1:10 in H2 O, filtered through a […] unit and then diluted into 150 mM sodium borate pH 8.5 at 1:100. The flasks were coated overnight at room temperature, washed two times in PBS and coated with 20 ml/flask of MEM/FBS at 37° C. for at least one hour prior to plating cells.) Cultures were maintained in a H2 O-saturated incubator with an atmosphere of 95% air/5% CO2 at 37° C. The culture medium was changed one and four days after plating and the cultures were then left undisturbed for at least one week. After approximately two weeks in vitro, the flasks were gently shaken and floating microglia were collected and centrifuged for 5 minutes at 200×G in an IEC Clinical Centrifuge. The microglia were reseeded in 96 well tissue culture plates at a density of 5,000-40,000 cells/well in 125 μl in MEM/FBS. Astrocyte cultures were prepared by multiple passaging of the established mixed brain cell cultures. Each T-150 was incubated for 3-4 minutes at 37°C. with a trypsin/EDTA solution (see above). The trypsin was then inactivated by adding MEM/FBS. The cells were triturated and then pelleted by centrifugation and resuspended in MEM/FBS. The cells from one T-150 were seeded at a 1:30 to 1:5 dilution in T-150's not coated. Just prior to confluency the cells were repassaged by trypsinization as described above. This process was repeated until the cultures were >98% pure astrocytes.
(§6) Cultured microglial cells were treated with 50 μM of Aβ1-40 or vehicle only (Control). The levels of IL-1β, IL-6, and TNF-α released into the culture medium were determined by ELISA assay (R&D Systems) according to manufacturer's instructions.
(§7) The effect of two benzenesulfonamide inhibitors of PLA2 (European Patent Application 468 054) were examined on the activation of microglial cells by Aβ1-40 as in Example 1.
(§8) The effects of the benzenesulfonamide PLA2 inhibitor AN20606 and the selective cytosolic PLA2 inhibitor arachidonyl trifluoromethyl ketone (AN20579) were examined in cultured human cortical microglia for their selectivity for inhibiting microglia activation mediated by amyloid-βpeptide and lipopolysaccharides (LPS). LPS are a major constituent of the cell wall of gama-negative bacteria and are extensively used for generating inflammatory responses in cultured cells and in vivo.

[9] = tested on: IL-1β release by cultured human cortical microglia; experiment: IL-1β release (ELISA) from Aβ1-40-stimulated human microglia; format: cell-based
Protocol: as §5, §6, §7, §8

[10] = tested on: TNFα release by cultured human cortical microglia; experiment: TNF release from LPS-stimulated human cortical microglia; format: cell-based
Protocol: as §5, §8

[11] = tested on: IL-1β release by cultured human cortical microglia; experiment: IL-1 release from LPS-stimulated human cortical microglia; format: cell-based
Protocol: as §5, §8

[12] = 50 μM Aβ1-40, compound 390 nM to 100 μM, 2 h pretreatment and re-added with Aβ, 3 days, n=3
[13] = 50 μM Aβ1-40, compound 390 nM to 100 μM added at time of Aβ, 3 days, n=3
[14] = 50 μM Aβ1-40, 1 day, compound 0, 5, 10, 20 μM, FIG. 2
[15] = 10 ng/ml LPS, inhibitor 20 μM where present
[16] = 50 μM Aβ1-40, inhibitor 20 μM where present

## CN(C)c1ccc(O)c2c1C[C@H]1C[C@H]3[C@H](N(C)C)C(O)=C(C(N)=O)C(=O)[C@@]3(O)C(O)=C1C2=O [Minocycline]
[1]
  TD10 (concentration giving 10% loss of neuronal survival): 78 µM
[2]; [12]
  Emax: 69%
  IC50: 71 µM

## Oleoyloxyethyl Phosphocholine
[1]
  TD10 (concentration giving 10% loss of neuronal survival): 17 µM
[1]; n=3, ND = not detected at the concentration range used, read-out: TD50 (concentration giving 50% loss of neuronal survival)
  CC50: 29 µM
[2]; [12]
  Max Inh: 40%

## CCN(CC)CCCC(C)Nc1c2ccc(Cl)cc2nc2ccc(OC)cc12 (stereo not drawn) [Quinacrine]
[3]; human, 4320 min
  TD10 (concentration giving 10% loss of neuronal survival): 6 µM
[4]
  CC50 at 72 h: 9 µM
[5]; [13]
  Max Inh: 2%

## O=C1O/C(=C/Br)CCC1c1cccc2ccccc12 (stereo not drawn) [Bromoenol Lactone, (e)-6-(bromomethylene)tetrahydro-3-(1-naphthalenyl)-2H-pyran-2-one]
[6]
  inhibition of Ca^+2 -independent PLA2 activity: capable of inhibiting
[2]; [12]
  Emax: 41%
[7]
  inhibition of cPLA2: capable of inhibiting

## CCCCCCCCCCCCCCCC(=O)C(F)(F)F [palmitoyl trifluoromethyl ketone]
[6]
  inhibition of Ca^+2 -independent PLA2 activity: capable of inhibiting
[7]
  inhibition of cPLA2: capable of inhibiting

## CN(C(=O)/C=C/c1ccc(C#N)cc1)c1ccc(S(=O)(=O)NC2CCCCCC2)cc1 [AN20628]
[3]; human, 4320 min
  TD10 (concentration giving 10% loss of neuronal survival): 73 µM
[8]; [14]
  amount of TNF-α released into the medium (in words): marked and dose-dependent decrease
[5]; 0, 25 or 50 μM Aβ1-40, varying doses, FIG. 3, FIG. 4
  neuronal survival in the presence of pathogenic Aβ peptide (in words): dose-dependent increase in neuronal survival
[5]; [13]
  Max Inh: 82%
[5]; Homo sapiens, Cortical neurone, 72 h, 50 μM Aβ1-40, compound 390 nM to 100 μM added at time of Aβ, 3 days, n=3, ND = not detected at the concentration range used, read-out: IC50 (dose that inhibited Aβ-mediated neurotoxicity by 50%)
  IC50: 8 µM
[9]; [14]
  amount of IL-1β released into the medium (in words): marked and dose-dependent decrease
[2]; [12]
  Emax: 87%
  IC50: 4 µM

## C[C@H]1c2cccc(O)c2C(O)=C2C(=O)[C@]3(O)C(O)=C(C(N)=O)C(=O)[C@@H](N(C)C)[C@@H]3[C@@H](O)[C@@H]21 [Doxycycline]
[2]; [12]
  Emax: 0%

## CCCCC/C=C\C/C=C\C/C=C\C/C=C\CCCC(=O)C(F)(F)F [AACOCF3, arachidonyl trifluoromethyl ketone]
[10]; [15]
  TNF Released: 785 ± 50 pg/mL
[10]; Homo sapiens, Microglia, 10 ng/ml LPS + 20 μM inhibitor, read-out: TNF Released, percent in parentheses (relative to LPS alone)
  activity at 20 µM: 161%
[10]; LPS stimulation
  LPS-mediated cytokine release, TNF (in words): actually enhanced
[6]
  inhibition of Ca^+2 -independent PLA2 activity: capable of inhibiting
[11]; [15]
  IL-1 Released: 51 ± 6.4 pg/mL
[11]; Homo sapiens, Microglia, 10 ng/ml LPS + 20 μM inhibitor, read-out: IL-1 Released, percent in parentheses (relative to LPS alone)
  activity at 20 µM: 225%
[11]; LPS stimulation
  LPS-mediated cytokine release, IL-1 (in words): actually enhanced
[8]; [16]
  TNF Released: 54.8 ± 9.4 pg/mL
[8]; Aβ1-40 versus LPS stimulation
  Aβ1-40-mediated TNFα release, selectivity versus LPS (in words): selectively inhibited
[8]; Homo sapiens, Microglia, 50 μM Aβ1-40 + 20 μM inhibitor, read-out: TNF Released, percent in parentheses (relative to Aβ1-40 alone)
  activity at 20 µM: 52%
[9]; [16]
  IL-1 Released: 36 ± 7.2 pg/mL
[9]; Aβ1-40 versus LPS stimulation
  Aβ1-40-mediated IL-1β release, selectivity versus LPS (in words): selectively inhibited
[9]; Homo sapiens, Microglia, 50 μM Aβ1-40 + 20 μM inhibitor, read-out: IL-1 Released, percent in parentheses (relative to Aβ1-40 alone)
  activity at 20 µM: 13%
[2]; pretreatment two hours, three days, FIG. 6
  neuronal death resulting from Aβ1-40 exposure (in words): substantially decreased neuronal death
[7]
  inhibition of cPLA2: capable of inhibiting

## CCCCCCCCCCCC=CC(C)(C)C=CCCCC(=O)O [DEDA, 7,7,-dimethyl-5,8-eicosadienoic acid]
[2]; [12]
  Emax: 19%

## COc1ccc2c(c1)CC[C@@H]1[C@@H]2CC[C@]2(C)[C@@H](NCCCCCCN3C(=O)CCC3=O)CC[C@@H]12 [U73343]
[3]; no Aβ1-40, 3 days, 390 nM to 100 μM, n=3
  TD10 (concentration giving 10% loss of neuronal survival): 6 µM
[4]; no Aβ1-40, 3 days, 390 nM to 100 μM, n=3, ND = not detected at the concentration range used, read-out: TD50 (concentration giving 50% loss of neuronal survival)
  CC50 at 72 h: 8 µM
[5]; [13]
  Max Inh: 10%
